Source: US20150225794A1, “METHOD OF PREDICTING A PREDISPOSITION TO QT PROLONGATION” (Vanda Pharmaceuticals, Inc., priority 2009, published 2015)

What was measured:
QT interval [1] = assay: ABCC2 SNP genotypes and QT prolongation following administration of iloperidone; type: in vivo, human; conditions: QTcF
Description: (§1) Since the QT interval changes with changes in heart rate, the QT interval is often measured as a corrected QT (QTc) interval. Any number of formulas may be employed to calculate the QTc, including, for example, the Fridericia formula (QTcF), the Bazett formula (QTcB), and the Rautaharju formula (QTp), among others. In the studies described herein, QT was calculated using the Fridericia formula. However, the present invention includes the use of any such formula or method for calculating a QTc or an uncorrected QT.

QT interval [2] = assay: QT prolongation and rs7067971 genotype in individuals given oral iloperidone for two weeks; type: in vivo, human; conditions: for High QT, + test (number of individuals) / Low QT, + test (number of individuals): rs7067971 GG; for High QT, + test (number of individuals) / Low QT, + test (number of individuals) / High QT, − test (number of individuals) / Low QT, − test (number of individuals): 24 mg/day B.I.D. oral, two weeks; for High QT, − test (number of individuals) / Low QT, − test (number of individuals): rs7067971 non-GG; for Odds Ratio: rs7067971 GG test
Description: as §1, with “QT. Using the genotypes at the SNP loci above, it is possible, with a high degree of certainty, to predict an individual's predisposition to QT prolongation.” for “QT.”

`COc1cc(C(C)=O)ccc1OCCCN1CCC(c2noc3cc(F)ccc23)CC1` [iloperidone] was tested, and the “Lowest QTc change (genotype)” value (QT interval [1]; SNP_A-2004488, rs2256678, allele A C, allele B T) was “non-BB”, the “Lowest QTc change (genotype)” value (QT interval [1]; SNP_A-2068049, rs7067971, allele A A, allele B G) was “non-BB” and the “Lowest QTc change (genotype)” value (QT interval [1]; SNP_A-2253129, rs4919395, allele A C, allele B T) was “non-BB”. For the same molecule, the “Lowest QTc change (genotype)” value (QT interval [1]; SNP_A-2262953, rs2804398, allele A A, allele B T) was “non-BB”, the “Lowest QTc change (genotype)” value (QT interval [1]; SNP_A-4268713, rs2256700, allele A A, allele B G) was “non-BB” and the “High QT, + test (number of individuals)” value (QT interval [2]; change threshold QT > 5 msec) was 13. The “Low QT, + test (number of individuals)” value (QT interval [2]; change threshold QT > 5 msec) was 0, the “High QT, − test (number of individuals)” value (QT interval [2]; change threshold QT > 5 msec) was 101 and the “Low QT, − test (number of individuals)” value (QT interval [2]; change threshold QT > 5 msec) was 64. The “Odds Ratio” value (QT interval [2]; change threshold QT > 15 msec) was 9.38, the “High QT, + test (number of individuals)” value (QT interval [2]; change threshold QT > 15 msec) was 11 and the “Low QT, + test (number of individuals)” value (QT interval [2]; change threshold QT > 15 msec) was 2. For the same molecule, the “High QT, − test (number of individuals)” value (QT interval [2]; change threshold QT > 15 msec) was 61, the “Low QT, − test (number of individuals)” value (QT interval [2]; change threshold QT > 15 msec) was 104 and the “Odds Ratio” value (QT interval [2]; change threshold QT > 30 msec) was 5.88. The “High QT, + test (number of individuals)” value (QT interval [2]; change threshold QT > 30 msec) was 6, the “Low QT, + test (number of individuals)” value (QT interval [2]; change threshold QT > 30 msec) was 7 and the “High QT, − test (number of individuals)” value (QT interval [2]; change threshold QT > 30 msec) was 21. The “Low QT, − test (number of individuals)” value (QT interval [2]; change threshold QT > 30 msec) was 144.
